Assay results taken from patent US20100249064A1, “METHODS AND COMPOSITIONS FOR TREATING DISEASES AND CONDITIONS INVOLVING HIGHER MOLECULAR WEIGHT HYALURONAN” (University of Chicago, priority 2007, published 2010).
Entries after “also recorded” stand apart in the source; their conditions may differ.

Key:
[1] = tested on: RhoA and Rac; assay: Rho family activation assay; type: cell-based, human; conditions: 100 nM HA; for Rac1 activation: LMW-HA 5 min, HMW-HA 5, 15, 30 min
Description: Rho Family Activation Assay—The RhoA and Rac activation assays using human lung EC were performed as described (Ren et al., 1999).

[2] = target: T1, purified HABP2 (Homo sapiens, UniProt Q14520); assay: HABP2 protease assay (QuantiCleave, succinylated casein); type: biochemical; conditions: purified HABP2, various concentrations of HA
T1 construct: host or cells: human pulmonary endothelial cells (EC); secreted into the medium, immunoprecipitated with anti-HABP2 antibody
Description: HABP2 protease assay. Protease activity is measured using the QuantiCleave™ Protease Assay Kit (Pierce). Briefly, the immunobeads are incubated with succinylated casein for one hour followed by development with TNBSA (2,4,6-trinitrobenzene sulfonic acid) and read at 450 nm.
HABP2 protein purification and protease activity determination. Media from HABP2 overexpression vector-transfected EC (Origene) was immunoprecipitated with anti-HABP2 antibody-conjugated Sepharose beads (Sigma). The immunobeads were then extensively washed in 50 mM Borate, pH=8.5 and eluted with 1M NaCl with 0.1% NP-40 and dialyzed against a 1,000 fold excess of 50 mM Borate, pH=8.5. Protein assays were performed to quantitate total protein. The purified protein was run on SDS-PAGE and either immunoblotted with anti-HABP2 antibody (Novus Biologicals) or stained with Imperial™ protein stain (Pierce) to check for purity. Protease activity was measured using the QuantiCleave™ Protease Assay Kit (Pierce). Briefly, the immunobeads were incubated with succinylated casein for one hour followed by development with TNBSA (2,4,6-trinitrobenzene sulfonic acid) and read at 450 nm.
Determination of the role of HMW-HA/HABP2/C1INH interactions in regulating angiogenesis in vitro. Human pulmonary EC (Cambrex), grown in EBM-2 complete medium (Cambrex) at 37° C. in a humidified atmosphere of 5% CO2, 95% air, with passages 6-10 used for experimentation will be treated with or without 100 nM HMW-HA and/or 100 nM VEGF in the presence or absence of HABP2 and/or C1INH overexpression vectors (Origene), exogenous purified recombinant HABP2 polyanion binding domain and/or C1INH (Novus Biologicals) and/or siRNA (scramble, HABP2 or C1INH). For HABP2 protease activity determination, media from HABP2 overexpressing EC (see above) was immunoprecipitated with anti-HABP2 antibody-conjugated Sepharose beads (Sigma). The immunobeads were then extensively washed in 50 mM Borate, pH=8.5 and protease activity was measured using the QuantiCleave™ Protease Assay Kit (Pierce). Briefly, the immunobeads were incubated with succinylated casein for one hour followed by development with TNBSA (2,4,6-trinitrobenzene sulfonic acid) and read at 450 nm.

[3] = tested on: Human pulmonary artery EC; assay: Cortical actin (phalloidin) staining and quantitation; type: cell-based; conditions: for cortical actin ring formation (F-actin localization): early, timepoint 5 min
Description: Immunofluorescence Microscopy and Cortical Actin Quantitation—Polymerized actin rearrangement was assessed first with Texas Red-conjugated phalloidin (Invitrogen (Molecular Probes), Eugene, Oreg.) and then analyzed using a Nikon Eclipse TE 300 microscope as described (Garcia et al., 2001). ImageQuant™ software (Amersham Biosciences Corp. (Piscataway, N.J.)) was used to analyze the computer recorded .tiff images. A standardized average grey value (SAGV) was generated for total phalloidin staining versus cortical phalloidin staining for each cell (Singleton et al., 2005). The following equation was used to calculate percent cortical actin staining: ((cortical actin SAGV×area) divided by (total actin SAGV×area))×100. At least ten cells per sample were analyzed. Experiments were performed in triplicate.
Immunofluorescence Microscopy. EC were serum-starved for one hour prior to the addition of 100 nM high MW HA. EC were then fixed in 4% paraformaldehyde, permeablized with ethanol and incubated with specific protein or interest primary antibody for 30 min followed by either FITC or Texas Red-conjugated secondary (Invitrogen (Molecular Probes), Eugene, Oreg.) and analyzed using a Nikon Eclipse TE 300 microscope as described (Garcia et. al., 2001).

[4] = tested on: HABP2; assay: HABP2 protein expression in EC by immunoblotting; type: cell-based, human; conditions: 100 nM HA, EC lysates, immunoblot
Description: Immunoblotting. Proteins in the EC lysates or mouse lung homogenates were solubilized in solubilization buffer, separated on SDS-PAGE, and analyzed by immunoblotting with specific antisera and HRP conjugated secondary antibody with enhanced chemiluminescence detection (Amersham Biosciences).
Treatment with LPS, low and high MW hyaluronan. EC were treated with 1.0 μg/ml LPS, 100 nM HMW-HA (˜1 million Daltons) or 100 nM LMW-HA (˜2,500 Daltons) for 24 hours and EC media and lysates were obtained.
Cell culture preparation and treatment. Human pulmonary microvascular EC (HPMVEC) (Cambrex), grown in EBM-2 complete medium (Cambrex) at 37° C. in a humidified atmosphere of 5% CO2, 95% air, with passages 6-10 used for experimentation will be treated with or without 1.0 μg/ml LPS, 100 nM HMW-HA and/or 100 nM LMW-HA in the presence or absence of exogenous purified recombinant HABP2 polyanion binding domain and/or C1INH (Novus Biologicals), HABP2 and/or C1INH overexpression vector or siRNA (scramble, HABP2, C1INH, PAR-1, PAR-2, PAR-3, PAR-4, tenascin-C or perlecan) or the potent hyaluronidase inhibitor, L-ascorbic acid 6-hexadecanoate (Botzki et al., 2004) (Sigma). Extracellular media and/or treated EC will either be analyzed for protein expression, HABP2 protease activity, hyaluronidase activity or Trans-endothelial Electrical Resistance (TER). […]

T1 sequence (Q14520 24-560): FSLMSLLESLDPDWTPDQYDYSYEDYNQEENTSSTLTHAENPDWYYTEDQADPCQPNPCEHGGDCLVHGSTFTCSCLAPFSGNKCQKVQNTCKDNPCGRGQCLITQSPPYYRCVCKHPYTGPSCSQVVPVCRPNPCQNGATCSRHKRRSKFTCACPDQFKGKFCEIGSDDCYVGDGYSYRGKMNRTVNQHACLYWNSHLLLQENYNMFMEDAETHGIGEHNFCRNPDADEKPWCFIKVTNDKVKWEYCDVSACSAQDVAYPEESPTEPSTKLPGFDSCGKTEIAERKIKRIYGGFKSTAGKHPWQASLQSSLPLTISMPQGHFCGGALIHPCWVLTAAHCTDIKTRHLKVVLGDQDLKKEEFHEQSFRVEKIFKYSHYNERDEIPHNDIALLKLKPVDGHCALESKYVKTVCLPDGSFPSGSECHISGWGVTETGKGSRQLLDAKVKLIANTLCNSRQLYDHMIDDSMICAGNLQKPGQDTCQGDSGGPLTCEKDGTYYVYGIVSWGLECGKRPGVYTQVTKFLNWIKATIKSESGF

Row | HABP2 protease activity [2] | HABP2 protease activity ([2]; listed as high MW hyaluronan) | Substance | Rac1 activation [1] | HABP2 protease activity ([2]; listed as High molecular weight hyaluronan) | cortical actin ring formation (F-actin localization) [3] | HABP2 protein expression in EC ([4]; listed as high MW hyaluronan) | RhoA activation ([1]; 15-30 min) | HABP2 protease activity ([2]; listed as low MW hyaluronan) | cortical actin staining / F-actin stress fiber formation ([3]; challenge for 30 min) | HABP2 protein expression in EC ([4]; listed as low molecular weight (MW) hyaluronan)
1 | inhibits | reduced its activity | hyaluronan [HMW-HA] | induced Rac1 activation | directly binds and inhibits the enzymatic activity of HABP2 | induced prominent cortical actin ring formation early on | reduced |  |  |  | 
2 | activates; also recorded: enhances |  | hyaluronan [LMW-HA, reference compound] | induced Rac1 activation |  | induced prominent cortical actin ring formation early on |  | promoted RhoA activation | increased the protease activity of purified HABP2 in a dose-dependent manner | loss of cortical actin staining with increased F-actin stress fiber formation | significantly enhanced
